These results are taken from ChEMBL document CHEMBL3046732, “Synthesis and biological evaluation of new [1,3,4]thiadiazepino[7,6-b]quinolin-2-amines as potent anti-microbial agents” (2013).

Some results are limits rather than exact numbers.

For one test, the system named is Escherichia coli. As to the kind of experiment: Antimicrobial activity against Escherichia coli assessed as growth inhibition by microdilution method. On the technique in general: In broth dilution the organism is exposed to a series of concentrations in liquid medium.
Another test relates to Aspergillus flavus. As to the kind of experiment: Antimicrobial activity against Aspergillus flavus assessed as growth inhibition by microdilution method. It is filed as functional.
In another test the test system is Streptococcus pyogenes. As to the kind of experiment: Antimicrobial activity against Streptococcus pyogenes assessed as growth inhibition by microdilution method.
A further test concerns Staphylococcus aureus. As to the kind of experiment: Antimicrobial activity against Staphylococcus aureus assessed as growth inhibition by microdilution method.
A further test has as its system Trichoderma reesei. Briefly: Antimicrobial activity against Trichoderma reesei assessed as growth inhibition by microdilution method. It is filed as functional.
In another test the test system is Aspergillus niger. As to the kind of experiment: Antimicrobial activity against Aspergillus niger assessed as growth inhibition by microdilution method. It is filed as functional.
In another test the test system is Bacillus subtilis. As to the kind of experiment: Antimicrobial activity against Bacillus subtilis assessed as growth inhibition by microdilution method.
The test system of a further test is Alternaria alternata. Briefly: Antimicrobial activity against Alternaria alternata assessed as growth inhibition by microdilution method. The test is classed as functional.
The next test has as its system Salmonella typhimurium. As to the kind of experiment: Antimicrobial activity against Salmonella enterica subsp. enterica serovar Typhimurium assessed as growth inhibition by microdilution method.
The next test has as its system Klebsiella aerogenes. Briefly: Antimicrobial activity against Enterobacter aerogenes assessed as growth inhibition by microdilution method.
The next test deals with Curvularia australiensis. As to the kind of experiment: Antimicrobial activity against Curvularia australiensis assessed as growth inhibition by microdilution method. The test is classed as functional.

As to `COc1ccc2nc3c(cc2c1)C=NN=C(Nc1cccc(F)c1)S3`, the MIC (usually the smallest concentration in the dilution series that meets the test's criterion for growth inhibition) was found to be 500 µg/mL with Escherichia coli; 500 µg/mL in the test on Aspergillus flavus; 500 µg/mL in the test with Streptococcus pyogenes; 500 µg/mL with Staphylococcus aureus; 1000 µg/mL with Trichoderma reesei; 1000 µg/mL in the test with Aspergillus niger. The MIC with Bacillus subtilis was 60 µg/mL; in the test with Alternaria alternata, 500 µg/mL; in the test with Salmonella typhimurium, 1000 µg/mL; in the test with Klebsiella aerogenes it was 500 µg/mL; in the test with Curvularia australiensis, 500 µg/mL.

As to `Cc1c(Cl)ccc2cc3c(nc12)SC(Nc1ccc(Cl)cc1)=NN=C3`, the MIC in the test with Escherichia coli was 500 µg/mL; in the test with Aspergillus flavus, 1000 µg/mL; with Streptococcus pyogenes it was 500 µg/mL; in the test with Staphylococcus aureus, 1000 µg/mL; in the test with Trichoderma reesei, 125 µg/mL; in the test with Aspergillus niger, 500 µg/mL. For the same molecule, the MIC was 60 µg/mL with Bacillus subtilis; 250 µg/mL in the test with Alternaria alternata; 1000 µg/mL with Salmonella typhimurium; 500 µg/mL with Klebsiella aerogenes; 500 µg/mL in the test on Curvularia australiensis.

In the case of `Cc1c(Cl)ccc2cc3c(nc12)SC(Nc1cccc(F)c1)=NN=C3`, the MIC was found to be 500 µg/mL with Escherichia coli; 1000 µg/mL with Aspergillus flavus; 1000 µg/mL in the test with Streptococcus pyogenes; 1000 µg/mL with Staphylococcus aureus; 250 µg/mL with Trichoderma reesei; 1000 µg/mL in the test with Aspergillus niger. Moreover, the MIC is 60 µg/mL with Bacillus subtilis; 1000 µg/mL with Alternaria alternata; 1000 µg/mL with Salmonella typhimurium; 500 µg/mL in the test on Klebsiella aerogenes; 1000 µg/mL with Curvularia australiensis.

With `Cc1cccc2cc3c(nc12)SC(Nc1ccc(F)cc1)=NN=C3`, the MIC is 250 µg/mL with Escherichia coli; 1000 µg/mL in the test with Aspergillus flavus; 250 µg/mL in the test on Streptococcus pyogenes; 250 µg/mL in the test on Staphylococcus aureus; 500 µg/mL with Trichoderma reesei; 1000 µg/mL in the test on Aspergillus niger. Besides, the MIC in the test with Bacillus subtilis came to 500 µg/mL; in the test on Alternaria alternata, 500 µg/mL; in the test with Salmonella typhimurium, 500 µg/mL; with Klebsiella aerogenes, 500 µg/mL; with Curvularia australiensis, 1000 µg/mL.

With `Cc1ccc2nc3c(cc2c1)C=NN=C(Nc1cccc(F)c1)S3`, the minimum inhibitory concentration (MIC) with Escherichia coli was more than 1000 µg/mL; in the test on Aspergillus flavus, 1000 µg/mL; in the test on Streptococcus pyogenes, more than 1000 µg/mL; in the test with Staphylococcus aureus it was more than 1000 µg/mL; in the test with Trichoderma reesei, 1000 µg/mL; with Aspergillus niger, 1000 µg/mL. The MIC in the test on Bacillus subtilis was more than 1000 µg/mL; in the test on Alternaria alternata, 500 µg/mL; in the test with Salmonella typhimurium, more than 1000 µg/mL; in the test on Klebsiella aerogenes, more than 1000 µg/mL; in the test with Curvularia australiensis, more than 1000 µg/mL.

With `Cc1cccc(C)c1NC1=NN=Cc2cc3cccc(C)c3nc2S1`, the MIC came to 1000 µg/mL with Escherichia coli; 500 µg/mL in the test with Aspergillus flavus; 1000 µg/mL with Streptococcus pyogenes; 1000 µg/mL in the test with Staphylococcus aureus; 250 µg/mL in the test with Trichoderma reesei; 1000 µg/mL in the test on Aspergillus niger. The MIC in the test on Bacillus subtilis came out at 1000 µg/mL; in the test with Alternaria alternata it was 500 µg/mL; in the test with Salmonella typhimurium, 1000 µg/mL; in the test with Klebsiella aerogenes, 1000 µg/mL; with Curvularia australiensis, 1000 µg/mL.

For `Cc1cccc2cc3c(nc12)SC(Nc1ccccc1F)=NN=C3`, the MIC in the test on Escherichia coli was 500 µg/mL; in the test on Aspergillus flavus, 1000 µg/mL; in the test with Streptococcus pyogenes, 1000 µg/mL; with Staphylococcus aureus it was 1000 µg/mL; in the test on Trichoderma reesei, 1000 µg/mL; with Aspergillus niger it was more than 1000 µg/mL. Moreover, the MIC was found to be 500 µg/mL in the test with Bacillus subtilis; 1000 µg/mL with Alternaria alternata; 250 µg/mL with Salmonella typhimurium; 500 µg/mL in the test on Klebsiella aerogenes; 1000 µg/mL in the test on Curvularia australiensis.

On to `Cc1c(Cl)ccc2cc3c(nc12)SC(NCc1ccccc1)=NN=C3`, for which the MIC with Escherichia coli was 1000 µg/mL; in the test with Aspergillus flavus, 500 µg/mL; with Streptococcus pyogenes, 1000 µg/mL; with Staphylococcus aureus, 1000 µg/mL; in the test on Trichoderma reesei, 500 µg/mL; in the test on Aspergillus niger, 500 µg/mL. Moreover, the MIC in the test on Bacillus subtilis amounted to 60 µg/mL; with Alternaria alternata, 500 µg/mL; with Salmonella typhimurium, 60 µg/mL; in the test on Klebsiella aerogenes, 500 µg/mL; in the test with Curvularia australiensis it was 500 µg/mL.
